Results published in ChEMBL document CHEMBL1201862, “PubChem BioAssay data set” (2004).
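In this assay, cells in 96-well plates receive the compound at five concentrations for 48 hours. Endpoints are linearly interpolated between the surrounding concentrations. At the GI50, growth is halved.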 The source made the active and inactive calls. Rule as the data show it: active = GI50 up to about 1.1 µM and inactive = higher.

Assays:
Assay in all cases: NCI-60 cell line screen, 48 h
MCF7 = system: MCF7
SW-620 = system: SW-620
IGROV-1 = system: IGROV-1
M14 = system: M14
CCRF-CEM = system: CCRF-CEM
OVCAR-5 = system: OVCAR-5
RXF 393 = system: RXF 393
SK-MEL-28 = system: SK-MEL-28
SR = system: SR
DU-145 = system: DU-145
ACHN = system: ACHN
786-0 = system: 786-0
HCC 2998 = system: HCC 2998
SF-539 = system: SF-539
PC-3 = system: PC-3
HT-29 = system: HT-29
HCT-116 = system: HCT-116
MDA-MB-231 = system: MDA-MB-231
Malme-3M = system: Malme-3M
KM12 = system: KM12

SMILES | GI50 (MCF7) | GI50 (SW-620) | GI50 (IGROV-1) | GI50 (M14) | GI50 (CCRF-CEM) | GI50 (OVCAR-5) | GI50 (RXF 393) | GI50 (SK-MEL-28) | GI50 (SR) | GI50 (DU-145) | GI50 (ACHN) | GI50 (786-0) | GI50 (HCC 2998) | GI50 (SF-539) | GI50 (PC-3) | GI50 (HT-29) | GI50 (HCT-116) | GI50 (MDA-MB-231) | GI50 (Malme-3M) | GI50 (KM12)
COc1cc2c(cc1OC)C1c3ccccc3CCN1CC2 (stereo not drawn) | > 100 µM (inactive) | 63.2 µM (inactive) | 53.3 µM (inactive) | 45 µM (inactive) | > 100 µM (inactive) | > 100 µM (inactive) | > 100 µM (inactive) | 79.3 µM (inactive) | > 100 µM (inactive) | > 100 µM (inactive) | > 100 µM (inactive) | > 100 µM (inactive) | 43.6 µM (inactive) | 31.1 µM (inactive) | > 100 µM (inactive) | 28.5 µM (inactive) | 36.8 µM (inactive) | 68.7 µM (inactive) | > 100 µM (inactive) | > 100 µM (inactive)
CSc1nc2c(c(=O)[nH]1)N=C(c1ccc([N+](=O)[O-])cc1)CC(c1ccccc1)N2 (stereo not drawn) | 23.7 µM (inactive) | 22.9 µM (inactive) | 32.7 µM (inactive) | 29.7 µM (inactive) | 29.2 µM (inactive) | > 100 µM (inactive) | 23.2 µM (inactive) | 22.7 µM (inactive) | 62.4 µM (inactive) | 86.1 µM (inactive) | 31.9 µM (inactive) | 34.7 µM (inactive) | 22.5 µM (inactive) | 29.2 µM (inactive) | 49.4 µM (inactive) | 20.3 µM (inactive) | 21.4 µM (inactive) | 32.3 µM (inactive) | 55.5 µM (inactive) | 17.9 µM (inactive)
CCCCC/C(=N\c1[nH]cnc1C(N)=O)OCC | > 100 µM (inactive) | > 100 µM (inactive) | > 100 µM (inactive) | 94.2 µM (inactive) | > 100 µM (inactive) | > 100 µM (inactive) | > 100 µM (inactive) | > 100 µM (inactive) | > 100 µM (inactive) | > 100 µM (inactive) | > 100 µM (inactive) | > 100 µM (inactive) | > 100 µM (inactive) | > 100 µM (inactive) | > 100 µM (inactive) | > 100 µM (inactive) | > 100 µM (inactive) | > 100 µM (inactive) | > 100 µM (inactive) | > 100 µM (inactive)
N#CC1(C#N)[C@@H]2CCC=C(Sc3ccccc3)[C@@H]21 | 10.4 µM (inactive) | 11.9 µM (inactive) | 19.8 µM (inactive) | 13.2 µM (inactive) | 5.71 µM (inactive) | 17.8 µM (inactive) | 13 µM (inactive) | 15 µM (inactive) | 13.1 µM (inactive) | 16 µM (inactive) | 15.5 µM (inactive) | 16.1 µM (inactive) | 16.7 µM (inactive) | 15.5 µM (inactive) | 14.3 µM (inactive) | 18.6 µM (inactive) | 15.7 µM (inactive) | 22.2 µM (inactive) | 16.9 µM (inactive) | 14.9 µM (inactive)
CCOc1ccc2c(c1)c(=O)c1c(NCCN(CC)CC)ccc3nnn2c31 | 12.3 µM (inactive) | 12.6 µM (inactive) | 9.64 µM (inactive) | 35.2 µM (inactive) | 4.91 µM (inactive) | > 36.1 µM (inactive) | 8.55 µM (inactive) | > 40.4 µM (inactive) | 10.4 µM (inactive) | 19.1 µM (inactive) | 15.6 µM (inactive) | > 32.8 µM (inactive) | > 33.6 µM (inactive) | 9.08 µM (inactive) | 18.8 µM (inactive) | 12.6 µM (inactive) | > 25.4 µM (inactive) | 18.6 µM (inactive) | 17.1 µM (inactive) | 14 µM (inactive)
O=c1c2cc(-c3ccccc3)cnc2sn1-c1ccc([N+](=O)[O-])cc1 | 49 µM (inactive) | 94.8 µM (inactive) | 29.6 µM (inactive) | 50.6 µM (inactive) | 19 µM (inactive) | > 100 µM (inactive) | 29.9 µM (inactive) | 58.1 µM (inactive) | > 100 µM (inactive) | 61.4 µM (inactive) | 24.9 µM (inactive) | 34.5 µM (inactive) | > 100 µM (inactive) | 42.7 µM (inactive) | 33.7 µM (inactive) | 68.2 µM (inactive) | 21.3 µM (inactive) | 41.3 µM (inactive) | 40.6 µM (inactive) | 38.9 µM (inactive)
CNc1ncnc2c1cnn2Cc1cn(CCCCO)nn1 | > 100 µM (inactive) | > 100 µM (inactive) | > 100 µM (inactive) | > 100 µM (inactive) | > 100 µM (inactive) | > 100 µM (inactive) | > 100 µM (inactive) | > 100 µM (inactive) | > 100 µM (inactive) | > 100 µM (inactive) | > 100 µM (inactive) | > 100 µM (inactive) | > 100 µM (inactive) | > 100 µM (inactive) | > 100 µM (inactive) | > 100 µM (inactive) | > 100 µM (inactive) | > 100 µM (inactive) | > 100 µM (inactive) | > 100 µM (inactive)
COC(=O)c1c(C)cccc1/C=C1\Cc2ccc(C)c(C)c2C1=O | > 100 µM (inactive) | > 100 µM (inactive) | > 100 µM (inactive) | 52.4 µM (inactive) | > 10 µM (inactive) | > 100 µM (inactive) | 86.5 µM (inactive) | > 100 µM (inactive) | 8.39 µM (inactive) | > 100 µM (inactive) | > 100 µM (inactive) | > 100 µM (inactive) | > 100 µM (inactive) | > 100 µM (inactive) | > 100 µM (inactive) | > 100 µM (inactive) | > 100 µM (inactive) | > 100 µM (inactive) | > 100 µM (inactive) | > 100 µM (inactive)
CC1CC(Nc2ccc(Br)cc2)N(C(=O)c2ccc(Br)cc2)O1 (stereo not drawn) | 5.81 µM (inactive) | 1.31 µM (inactive) | 9.73 µM (inactive) | > 10 µM (inactive) | 2.51 µM (inactive) | 6.37 µM (inactive) | > 10 µM (inactive) | > 10 µM (inactive) | 2.19 µM (inactive) | 2.62 µM (inactive) | 0.678 µM (active) | > 10 µM (inactive) | > 10 µM (inactive) | 3.52 µM (inactive) | 2.23 µM (inactive) | 1.73 µM (inactive) | 4.42 µM (inactive) | > 10 µM (inactive) | 6.84 µM (inactive) | 
O=C(O)c1ccc(Nc2nc3cc(C(F)(F)F)ccc3nc2-c2ccccc2)cc1 | > 10 µM (inactive) | 17.2 µM (inactive) | 13.4 µM (inactive) |  | 22.3 µM (inactive) | 45.6 µM (inactive) | 24 µM (inactive) | 28.6 µM (inactive) | 6.89 µM (inactive) | 25.8 µM (inactive) | 19.1 µM (inactive) | 18.7 µM (inactive) | 16.7 µM (inactive) | 21.7 µM (inactive) | 18.5 µM (inactive) | 14.1 µM (inactive) | 22.8 µM (inactive) | 32.1 µM (inactive) | 23.7 µM (inactive) | 13.2 µM (inactive)
CC(=O)OC(C(=O)NNC(=O)OC(C)(C)C)c1ccccc1 (stereo not drawn) | > 100 µM (inactive) | > 100 µM (inactive) | > 100 µM (inactive) | > 100 µM (inactive) |  | > 100 µM (inactive) | > 100 µM (inactive) | > 100 µM (inactive) | > 100 µM (inactive) | > 100 µM (inactive) | > 100 µM (inactive) | > 100 µM (inactive) | > 100 µM (inactive) | > 100 µM (inactive) | > 100 µM (inactive) | > 100 µM (inactive) |  | > 100 µM (inactive) | > 100 µM (inactive) | > 100 µM (inactive)
c1ccc(Cc2nc(Cc3n[nH]c(Cc4ccccc4)n3)n[nH]2)cc1 | > 100 µM (inactive) | > 100 µM (inactive) | > 100 µM (inactive) | > 100 µM (inactive) | > 100 µM (inactive) | > 100 µM (inactive) | > 100 µM (inactive) | > 100 µM (inactive) | > 100 µM (inactive) | > 100 µM (inactive) | > 100 µM (inactive) | > 100 µM (inactive) | > 100 µM (inactive) | > 100 µM (inactive) | > 100 µM (inactive) | > 100 µM (inactive) | > 100 µM (inactive) | > 100 µM (inactive) |  | > 100 µM (inactive)
O=C(NC(Cc1c[nH]cn1)C(=O)N1CCCC1)C1CCCC1 (stereo not drawn) | > 100 µM (inactive) | > 100 µM (inactive) | > 100 µM (inactive) | > 100 µM (inactive) | > 100 µM (inactive) | > 100 µM (inactive) | > 100 µM (inactive) | > 100 µM (inactive) | 54.1 µM (inactive) | > 100 µM (inactive) | > 100 µM (inactive) | > 100 µM (inactive) | > 100 µM (inactive) |  | > 100 µM (inactive) | > 100 µM (inactive) | > 100 µM (inactive) | > 100 µM (inactive) | > 100 µM (inactive) | > 100 µM (inactive)
c1ccc2sc(SSSc3nc4ccccc4s3)nc2c1 | 44.1 µM (inactive) | > 100 µM (inactive) | > 100 µM (inactive) | > 100 µM (inactive) | 28.4 µM (inactive) | > 100 µM (inactive) | > 100 µM (inactive) | > 100 µM (inactive) | 53.8 µM (inactive) | > 100 µM (inactive) | > 100 µM (inactive) | 44.4 µM (inactive) | > 100 µM (inactive) |  | > 100 µM (inactive) | 35.7 µM (inactive) | > 100 µM (inactive) | > 100 µM (inactive) | > 100 µM (inactive) | > 100 µM (inactive)
